Paper PMC3560421 (European journal of medicinal chemistry, 2012)
pIC50: −log10 of the molar value. Like-named read-outs stand apart in the source and are kept apart here.

Experiments:
[1] = Preliminary in vivo toxicity evaluation in uninfected animals; set-up: species or system mice; conditions: for Adverse reaction after dosing: mouse, in vivo, ip, 30 mg/kg
[2] = tested on: intracellular Leishmania amazonensis; assay: Efficacy against intracellular Leishmania amazonensis parasites; assay type: cell-based; conditions: read-out: IC50 L. a., intracellular L. amazonensis
[3] = tested on: poly(dA-dT)n; assay: DNA thermal melting; assay type: binding; conditions: thermal melting with poly(dA-dT); compared with DB766
[4] = tested on: Leishmania; conditions: read-out: IC50 value (antileishmanial, in vitro); cited from earlier work
[5] = tested on: intracellular Leishmania donovani; conditions: read-out: IC50 L. d.; cited from earlier work
[6] = tested on: intracellular Leishmania amazonensis; conditions: read-out: IC50 L. a.; cited from earlier work

| Structure (SMILES) | Toxicity to mice (in words) [1] | Adverse reaction after dosing [1] | DNA binding (in words) [3] | further results |
| --- | --- | --- | --- | --- |
| Cl.Cl.N=C(Nc1ccc(-c2ccc(NC(=N)c3ccccn3)cc2)cc1)c1ccccn1 [9a, N,N'-([1,1'-biphenyl]-4,4'-diyl)dipicolinimidamide hydrochloride] | quite toxic to mice | severe tremors | binds with the same affinity as DB766 | pIC50 [2]: > 6.00 |
| CC(C)Oc1cc(NC(=N)c2ccccn2)ccc1-c1ccc(NC(=N)c2ccccn2)cc1OC(C)C.Cl.Cl [compound 13, N,N'-(2,2'-di-isopropoxy-[1,1'-biphenyl]-4,4'-diyl)dipicolinimidamide hydrochloride] | quite toxic to mice | severe tremors | essentially does not bind to DNA | – |
| Cl.Cl.N=C(Nc1ccccn1)c1ccc(C(=N)Nc2ccccn2)cc1 [compound 6, N ^1,N ^4-di(pyridin-2-yl)terephthalimidamide hydrochloride] | – | – | essentially do not bind to DNA | – |
| Cl.Cl.N=C(Nc1ccc(NC(=N)c2ccccn2)cc1)c1ccccn1 [3a, N,N'-(1,4-phenylene)dipicolinimidamide hydrochloride] | – | – | essentially do not bind to DNA | – |
| CC(C)Oc1cc(NC(=N)c2ccccn2)ccc1-c1ccc(-c2ccc(NC(=N)c3ccccn3)cc2OC(C)C)o1 [DB766] | – | – | – | pIC50 [4]: > 7.00; pIC50 [5]: 7.44; pIC50 [6]: 7.06 |
| Cl.Cl.N=C(Nc1ccc(NC(=N)c2ncccn2)cc1)c1ncccn1 [3b, N,N'-(1,4-phenylene)dipyrimidine-2-carboximidamide hydrochloride] | – | – | essentially do not bind to DNA | – |
| Cl.Cl.N=C(Nc1ccc(Oc2ccc(NC(=N)c3ccccn3)cc2)cc1)c1ccccn1 [9c, N,N'-(oxybis(4,1-phenylene))dipicolinimidamide hydrochloride] | quite toxic to mice | severe tremors | – | pIC50 [2]: > 6.00 |
